Assay results published in the supplement of paper PMC9663587.

Experiments:
THZ531 = compound: CN(C)C/C=C/C(=O)Nc1ccc(C(=O)N2CCC[C@@H](Nc3ncc(Cl)c(-c4c[nH]c5ccccc45)n3)C2)cc1 [THZ531]; assay: GR value, 72 h; higher = faster growth (1 = untreated, <0 = killing);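 note: breast cancer and non-malignant breast epithelial lines, nine half-log doses, viable cells counted by Hoechst and LIVE/DEAD dye imaging versus time-zero plates and DMSO controls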
THZ1 = compound: CN(C)C/C=C/C(=O)Nc1ccc(C(=O)Nc2cccc(Nc3ncc(Cl)c(-c4c[nH]c5ccccc45)n3)c2)cc1 [THZ1]; assay: as above
Flavopiridol [1] = compound: T1, CN1CC[C@H](c2c(O)cc(O)c3c(=O)cc(-c4ccccc4Cl)oc23)[C@H](O)C1 [Flavopiridol]; assay: as above
[2] = compound: CCN1CCN(Cc2ccc(Nc3ncc(F)c(-c4cc(F)c5nc(C)n(C(C)C)c5c4)n3)nc2)CC1; assay: as above
BSJ-03-123 = compound: CC(=O)c1c(C)c2cnc(Nc3ccc(N4CCN(CCOCCOCCOCCNC(=O)COc5cccc6c5C(=O)N(C5CCC(=O)NC5=O)C6=O)CC4)cn3)nc2n(C2CCCC2)c1=O [BSJ-03-123]; assay: as above
YKL-5-124 = compound: C=CC(=O)Nc1ccc(C(=O)Nc2[nH]nc3c2CN(C(=O)N[C@H](CN(C)C)c2ccccc2)C3(C)C)cc1 [YKL-5-124]; assay: as above
[3] = compound: CCc1cnn2c(NCc3ccc[n+]([O-])c3)cc(N3CCCC[C@H]3CCO)nc12; assay: as above
LEE011/Ribociclib = compound: CN(C)C(=O)c1cc2cnc(Nc3ccc(N4CCNCC4)cn3)nc2n1C1CCCC1 [LEE011/Ribociclib]; assay: as above
Neratinib/HKI272 = compound: CCOc1cc2ncc(C#N)c(Nc3ccc(OCc4ccccn4)c(Cl)c3)c2cc1NC(=O)/C=C/CN(C)C [Neratinib/HKI272]; assay: as above
[4] = compound: CC(=O)c1c(C)c2cnc(Nc3ccc(N4CCNCC4)cn3)nc2n(C2CCCC2)c1=O; assay: as above
Flavopiridol [5] = compound: T1, Flavopiridol; assay: increase in dead-cell fraction, 72 h; higher = more death;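 note: breast cancer cell lines in 384-well plates, stained with Hoechst plus LIVE/DEAD far red dye and imaged, cells above an LDR intensity threshold counted dead, Hoechst-negative corpses included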
[6] = compound: CCN1CCN(Cc2ccc(Nc3ncc(F)c(-c4cc(F)c5nc(C)n(C(C)C)c5c4)n3)nc2)CC1; assay: as above

What does the source list for BT549?
GR value (THZ531; 0.0001 µM): 0.997 GR; GR value (THZ531; 0.0003162 µM): 0.974 GR; GR value (THZ531; 0.001 µM): 1.01 GR; GR value (THZ531; 0.003162 µM): 1.01 GR; GR value (THZ531; 0.01 µM): 1.04 GR; GR value (THZ531; 0.03162 µM): 0.956 GR; GR value (THZ531; 0.1 µM): 0.849 GR; GR value (THZ531; 0.3162 µM): 0.51 GR; GR value (THZ531; 1 µM): -0.378 GR; GR value (THZ1; 0.0001 µM): 1.06 GR; GR value (THZ1; 0.0003162 µM): 1.01 GR; GR value (THZ1; 0.001 µM): 1.02 GR; GR value (THZ1; 0.003162 µM): 0.979 GR; GR value (THZ1; 0.01 µM): 0.909 GR; GR value (THZ1; 0.03162 µM): 0.69 GR; GR value (THZ1; 0.1 µM): 0.16 GR; GR value (THZ1; 0.3162 µM): -0.171 GR; GR value (THZ1; 1 µM): -0.317 GR; GR value (Flavopiridol [1]; 0.0001 µM): 1.03 GR; GR value (Flavopiridol [1]; 0.0003162 µM): 0.982 GR; GR value (Flavopiridol [1]; 0.001 µM): 1.01 GR; GR value (Flavopiridol [1]; 0.003162 µM): 0.958 GR; GR value (Flavopiridol [1]; 0.01 µM): 1.02 GR; GR value (Flavopiridol [1]; 0.03162 µM): 0.894 GR; GR value (Flavopiridol [1]; 0.1 µM): 0.695 GR; GR value (Flavopiridol [1]; 0.3162 µM): 0.11 GR; GR value (Flavopiridol [1]; 1 µM): -0.455 GR; GR value ([2]; 0.001 µM): 0.992 GR; GR value ([2]; 0.003162 µM): 1.03 GR; GR value ([2]; 0.01 µM): 0.997 GR; GR value ([2]; 0.03162 µM): 1.02 GR; GR value ([2]; 0.1 µM): 0.952 GR; GR value ([2]; 0.3162 µM): 0.963 GR; GR value ([2]; 1 µM): 0.895 GR; GR value ([2]; 3.162 µM): 0.588 GR; GR value ([2]; 10 µM): 0.0335 GR; GR value (BSJ-03-123; 0.001 µM): 0.998 GR; GR value (BSJ-03-123; 0.003162 µM): 0.999 GR; GR value (BSJ-03-123; 0.01 µM): 1 GR; GR value (BSJ-03-123; 0.03162 µM): 0.988 GR; GR value (BSJ-03-123; 0.1 µM): 0.998 GR; GR value (BSJ-03-123; 0.3162 µM): 0.976 GR; GR value (BSJ-03-123; 1 µM): 0.938 GR; GR value (BSJ-03-123; 3.162 µM): 0.88 GR; GR value (BSJ-03-123; 10 µM): 0.0237 GR; GR value (YKL-5-124; 0.001 µM): 0.747 GR; GR value (YKL-5-124; 0.003162 µM): 0.497 GR; GR value (YKL-5-124; 0.01 µM): 0.301 GR; GR value (YKL-5-124; 0.03162 µM): 0.125 GR; GR value (YKL-5-124; 0.1 µM): 0.0904 GR; GR value (YKL-5-124; 0.3162 µM): 0.0362 GR; GR value (YKL-5-124; 1 µM): -0.0144 GR; GR value (YKL-5-124; 3.162 µM): -0.0731 GR; GR value (YKL-5-124; 10 µM): -0.58 GR; GR value ([3]; 0.0001 µM): 0.971 GR; GR value ([3]; 0.0003162 µM): 1.02 GR; GR value ([3]; 0.001 µM): 1 GR; GR value ([3]; 0.003162 µM): 0.996 GR; GR value ([3]; 0.01 µM): 0.698 GR; GR value ([3]; 0.03162 µM): -0.221 GR; GR value ([3]; 0.1 µM): -0.261 GR; GR value ([3]; 0.3162 µM): -0.275 GR; GR value ([3]; 1 µM): -0.293 GR; GR value (LEE011/Ribociclib; 0.001 µM): 0.972 GR; GR value (LEE011/Ribociclib; 0.003162 µM): 1.06 GR; GR value (LEE011/Ribociclib; 0.01 µM): 0.919 GR; GR value (LEE011/Ribociclib; 0.03162 µM): 0.997 GR; GR value (LEE011/Ribociclib; 0.1 µM): 1 GR; GR value (LEE011/Ribociclib; 0.3162 µM): 0.995 GR; GR value (LEE011/Ribociclib; 1 µM): 1 GR; GR value (LEE011/Ribociclib; 3.162 µM): 0.966 GR; GR value (LEE011/Ribociclib; 10 µM): 0.992 GR; GR value (Neratinib/HKI272; 0.0003162 µM): 1.02 GR; GR value (Neratinib/HKI272; 0.001 µM): 1.03 GR; GR value (Neratinib/HKI272; 0.003162 µM): 1 GR; GR value (Neratinib/HKI272; 0.01 µM): 1.04 GR; GR value (Neratinib/HKI272; 0.03162 µM): 1.02 GR; GR value (Neratinib/HKI272; 0.1 µM): 0.969 GR; GR value (Neratinib/HKI272; 0.3162 µM): 0.904 GR; GR value (Neratinib/HKI272; 1 µM): 0.793 GR; GR value (Neratinib/HKI272; 3.162 µM): 0.196 GR; GR value ([4]; 0.0003162 µM): 1.02 GR; GR value ([4]; 0.001 µM): 1.04 GR; GR value ([4]; 0.003162 µM): 1.03 GR; GR value ([4]; 0.01 µM): 1.06 GR; GR value ([4]; 0.03162 µM): 1.06 GR; GR value ([4]; 0.1 µM): 1.04 GR; GR value ([4]; 0.3162 µM): 1.03 GR; GR value ([4]; 1 µM): 1.08 GR; GR value ([4]; 3.162 µM): 1.07 GR; increase in dead-cell fraction (Flavopiridol [5]; 0.0001 µM): 0.0048; increase in dead-cell fraction (Flavopiridol [5]; 0.0003162 µM): -0.0007; increase in dead-cell fraction (Flavopiridol [5]; 0.001 µM): -0.0015; increase in dead-cell fraction (Flavopiridol [5]; 0.003162 µM): 0.0036; increase in dead-cell fraction (Flavopiridol [5]; 0.01 µM): -0.0014; increase in dead-cell fraction (Flavopiridol [5]; 0.03162 µM): 0.0045; increase in dead-cell fraction (Flavopiridol [5]; 0.1 µM): 0.0204; increase in dead-cell fraction (Flavopiridol [5]; 0.3162 µM): 0.164; increase in dead-cell fraction (Flavopiridol [5]; 1 µM): 0.514; increase in dead-cell fraction ([6]; 0.001 µM): -0.0017; increase in dead-cell fraction ([6]; 0.003162 µM): -0.0033; increase in dead-cell fraction ([6]; 0.01 µM): 0.0079; increase in dead-cell fraction ([6]; 0.03162 µM): -0.0016; increase in dead-cell fraction ([6]; 0.1 µM): 0.0009; increase in dead-cell fraction ([6]; 0.3162 µM): -0.01; increase in dead-cell fraction ([6]; 1 µM): 0.0019; increase in dead-cell fraction ([6]; 3.162 µM): 0.024; increase in dead-cell fraction ([6]; 10 µM): 0.139
